US9371320B2, “Heterocyclic compound” (TAKEDA PHARMACEUTICAL COMPANY LIMITED, priority 2012, dated 2016)
Read-outs that look alike come from different tables or passages of the source.

Tests used:
[1] = molecular target: T1, Tyk2 (Homo sapiens, UniProt P29597); test: Tyk2 enzyme inhibition test (LANCE method); type: biochemical; conditions: for inhibition at 1 µM / Inhibitory rate (%) Tyk2 1 μM: test compound 1 μM; for inhibition at 1 µM: read-out: Inhibitory rate (%) Tyk2 1 μM; for inhibition at 10 µM: test compound 10 μM, read-out: Inhibitory rate (%) Tyk2 10 μM
T1 construct: purchased Invitrogen
T1 sequence (P29597 whole entry): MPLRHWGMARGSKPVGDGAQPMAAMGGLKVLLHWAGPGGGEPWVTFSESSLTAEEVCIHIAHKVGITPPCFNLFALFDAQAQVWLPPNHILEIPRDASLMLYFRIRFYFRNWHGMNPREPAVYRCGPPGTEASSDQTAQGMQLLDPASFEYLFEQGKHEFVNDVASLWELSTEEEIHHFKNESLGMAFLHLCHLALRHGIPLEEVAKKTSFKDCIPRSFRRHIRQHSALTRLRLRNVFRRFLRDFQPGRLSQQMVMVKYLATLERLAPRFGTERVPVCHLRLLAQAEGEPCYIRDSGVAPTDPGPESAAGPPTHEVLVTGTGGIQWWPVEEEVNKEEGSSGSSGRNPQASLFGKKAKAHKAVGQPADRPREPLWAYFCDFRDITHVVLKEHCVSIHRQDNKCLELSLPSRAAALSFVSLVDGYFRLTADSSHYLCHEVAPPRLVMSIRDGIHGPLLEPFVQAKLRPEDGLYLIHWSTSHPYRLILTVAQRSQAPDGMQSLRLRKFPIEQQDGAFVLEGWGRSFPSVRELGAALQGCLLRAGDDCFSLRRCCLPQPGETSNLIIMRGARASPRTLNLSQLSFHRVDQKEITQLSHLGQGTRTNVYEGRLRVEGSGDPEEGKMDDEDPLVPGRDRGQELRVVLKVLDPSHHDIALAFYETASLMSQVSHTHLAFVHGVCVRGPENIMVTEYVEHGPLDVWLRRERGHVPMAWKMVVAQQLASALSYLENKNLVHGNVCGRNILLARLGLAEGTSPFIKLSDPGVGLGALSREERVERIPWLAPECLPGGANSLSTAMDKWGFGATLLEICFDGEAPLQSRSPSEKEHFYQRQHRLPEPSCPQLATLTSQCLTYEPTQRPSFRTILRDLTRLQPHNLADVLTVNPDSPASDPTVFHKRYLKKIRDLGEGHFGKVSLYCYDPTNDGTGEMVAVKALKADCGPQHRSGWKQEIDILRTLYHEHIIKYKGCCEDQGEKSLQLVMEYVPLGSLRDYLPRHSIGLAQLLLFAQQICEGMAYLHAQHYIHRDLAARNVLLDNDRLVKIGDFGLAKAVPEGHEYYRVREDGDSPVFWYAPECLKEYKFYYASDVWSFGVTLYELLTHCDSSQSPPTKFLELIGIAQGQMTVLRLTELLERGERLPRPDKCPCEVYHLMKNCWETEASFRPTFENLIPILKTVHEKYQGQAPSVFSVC
Procedure, shortened: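 Recombinant Tyk2 (375 ng/mL stock) with ULight-JAK1 peptide (300 nM stock) and ATP (30 μM stock) in HEPES pH 7.5/MgCl2/EGTA/DTT buffer, 1 h at room temperature. Stopped with EDTA plus Eu-anti-phosphotyrosine antibody; TR-FRET read at 665 nm after 1 h. No-enzyme wells define 100% inhibition.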

[2] = molecular target: T2, JAK1 (Homo sapiens, UniProt P23458); test: JAK1 enzyme inhibition test (LANCE method); type: biochemical; conditions: for inhibition at 10 µM: read-out: Inhibitory rate (%) JAK1 10 μM; for inhibition at 1 µM: read-out: Inhibitory rate (%) JAK1 1 μM
T2 construct: purchased Invitrogen
T2 sequence (P23458 whole entry): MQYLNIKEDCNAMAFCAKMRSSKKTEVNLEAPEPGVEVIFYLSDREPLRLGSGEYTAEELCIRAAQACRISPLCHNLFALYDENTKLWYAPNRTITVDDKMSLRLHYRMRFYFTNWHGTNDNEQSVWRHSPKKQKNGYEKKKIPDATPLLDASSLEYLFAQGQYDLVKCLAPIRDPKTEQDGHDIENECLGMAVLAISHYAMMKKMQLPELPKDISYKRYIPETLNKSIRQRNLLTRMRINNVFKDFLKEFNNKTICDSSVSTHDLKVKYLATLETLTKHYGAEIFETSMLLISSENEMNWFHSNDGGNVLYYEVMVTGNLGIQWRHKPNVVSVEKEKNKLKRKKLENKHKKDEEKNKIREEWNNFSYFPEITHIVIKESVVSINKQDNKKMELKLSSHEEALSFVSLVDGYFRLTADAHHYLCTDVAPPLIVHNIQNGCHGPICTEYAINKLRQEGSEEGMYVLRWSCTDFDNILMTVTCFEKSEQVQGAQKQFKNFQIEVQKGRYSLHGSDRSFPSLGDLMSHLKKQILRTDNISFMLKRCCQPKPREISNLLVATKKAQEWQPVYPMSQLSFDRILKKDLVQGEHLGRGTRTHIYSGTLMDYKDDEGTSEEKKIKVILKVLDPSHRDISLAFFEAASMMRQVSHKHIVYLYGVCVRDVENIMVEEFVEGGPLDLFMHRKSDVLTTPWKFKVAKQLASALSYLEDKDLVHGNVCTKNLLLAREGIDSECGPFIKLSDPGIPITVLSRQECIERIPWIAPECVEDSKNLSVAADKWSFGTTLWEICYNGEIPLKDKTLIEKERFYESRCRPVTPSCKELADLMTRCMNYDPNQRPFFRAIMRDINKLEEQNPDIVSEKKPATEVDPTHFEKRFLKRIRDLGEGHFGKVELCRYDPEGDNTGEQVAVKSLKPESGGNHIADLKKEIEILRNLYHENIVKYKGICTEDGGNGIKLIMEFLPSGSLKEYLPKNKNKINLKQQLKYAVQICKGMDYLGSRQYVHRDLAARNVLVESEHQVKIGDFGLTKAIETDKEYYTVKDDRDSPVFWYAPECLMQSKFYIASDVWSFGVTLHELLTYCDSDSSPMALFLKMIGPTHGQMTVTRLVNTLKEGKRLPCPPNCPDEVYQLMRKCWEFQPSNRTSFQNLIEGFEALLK
Procedure, shortened: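 TR-FRET (LANCE) kinase assay using JAK1 at 187.5 ng/mL, ULight-JAK1 peptide at 300 nM and ATP at 150 μM, given as solution concentrations before mixing. Buffer was 50 mM HEPES pH 7.5 with 10 mM MgCl2 and 2 mM DTT, and the reaction ran 1 h at room temperature. Eu anti-phosphotyrosine signal at 665 nm was expressed relative to a no-enzyme well, taken as 100% inhibition.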

[3] = test compound 10 μM (Ex. 182-220), beside Tyk2 1 μM

SMILES | inhibition at 1 µM [1] | inhibition at 1 µM ([2]; test compound 1 μM) | other results
NC(=O)c1cc(-c2nn([C@H]3CC[C@H](O)CC3)c3cc[nH]c(=O)c23)cs1 [Example 183, 4-(1-(trans-4-hydroxycyclohexyl)-4-oxo-4,5-dihydro-1H-pyrazolo[4,3-c]pyridin-3-yl)thiophene-2-carboxamide] | 100% | – | inhibition at 10 µM [2, 3]: 100%
NS(=O)(=O)c1ccc(-c2nn(C3CCOC3)c3cc[nH]c(=O)c23)cc1 (stereo not drawn) [Example 82, 4-(4-oxo-1-(tetrahydrofuran-3-yl)-4,5-dihydro-1H-pyrazolo[4,3-c]pyridin-3-yl)benzenesulfonamide] | – | 95% | Inhibitory rate (%) Tyk2 1 μM [1]: 78%
N#Cc1c[nH]c(=O)c2c(-c3csc(C(=O)O)c3)cn(C3CCCC3)c12 [Example 77, 4-(7-cyano-1-cyclopentyl-4-oxo-4,5-dihydro-1H-pyrrolo[3,2-c]pyridin-3-yl)thiophene-2-carboxylic acid] | 99% | 96% | –
N#Cc1cc(-c2nn(C3CCCC3)c3cc[nH]c(=O)c23)cs1 [Example 14, 4-(1-cyclopentyl-4-oxo-4,5-dihydro-1H-pyrazolo[4,3-c]pyridin-3-yl)thiophene-2-carbonitrile] | 98% | 99% | –
CNC(=O)c1cc(-c2nn(C3CCCC3)c3cc[nH]c(=O)c23)cs1 [Example 155, 4-(1-cyclopentyl-4-oxo-4,5-dihydro-1H-pyrazolo[4,3-c]pyridin-3-yl)-N-methylthiophene-2-carboxamide] | 99% | 100% | –
O=C1CCCN1Cc1ccc(-c2nn(-c3c(F)cccc3F)c3cc[nH]c(=O)c23)cc1 [Example 275, 1-(2,6-difluorophenyl)-3-(4-((2-oxopyrrolidin-1-yl)methyl)phenyl)-1,5-dihydro-4H-pyrazolo[4,3-c]pyridin-4-one] | 98% | 96% | –
NS(=O)(=O)c1ccc(-c2nn(-c3ccccc3)c3cc[nH]c(=O)c23)cc1 [Example 30, 4-(4-oxo-1-phenyl-4,5-dihydro-1H-pyrazolo[4,3-c]pyridin-3-yl)benzenesulfonamide] | 92% | 94% | –
CC1(O)CCC(n2nc(-c3ccc(S(N)(=O)=O)cc3)c3c(=O)[nH]ccc32)CC1 (stereo not drawn) [Example 197, 4-(1-(4-hydroxy-4-methylcyclohexyl)-4-oxo-4,5-dihydro-1H-pyrazolo[4,3-c]pyridin-3-yl)benzenesulfonamide] | – | – | Inhibitory rate (%) Tyk2 1 μM [1]: 98%; Inhibitory rate (%) JAK1 10 μM [2, 3]: 99%
COC(=O)c1cc(-n2nc(-c3ccccc3C)c3c(Br)c[nH]c(=O)c32)cs1 [Example 78, methyl 4-(4-bromo-3-(2-methylphenyl)-7-oxo-6,7-dihydro-1H-pyrazolo[3,4-c]pyridin-1-yl)thiophene-2-carboxylate] | 75% | 23% | –
CC(=O)c1c[nH]c(=O)c2c(-c3csc(C(N)=O)c3)cn(C3CCCC3)c12 [Example 60, 4-(7-acetyl-1-cyclopentyl-4-oxo-4,5-dihydro-1H-pyrrolo[3,2-c]pyridin-3-yl)thiophene-2-carboxamide] | 89% | 50% | –
O=C1Cc2ccc(-c3nn(-c4c(F)cccc4F)c4c(Cl)c[nH]c(=O)c34)cc2N1 [Example 227, 7-chloro-1-(2,6-difluorophenyl)-3-(2-oxo-2,3-dihydro-1H-indol-6-yl)-1,5-dihydro-4H-pyrazolo[4,3-c]pyridin-4-one] | 97% | 54% | –
NC(=O)c1cccc(-c2nn(C3CCCC3)c3cc[nH]c(=O)c23)c1 [Example 143, 3-(1-cyclopentyl-4-oxo-4,5-dihydro-1H-pyrazolo[4,3-c]pyridin-3-yl)benzamide] | 92% | 93% | –
NS(=O)(=O)c1ccc(-c2nn(C3CCC(O)CC3)c3cc[nH]c(=O)c23)cc1 (stereo not drawn) [Example 126, 4-(1-(4-hydroxycyclohexyl)-4-oxo-4,5-dihydro-1H-pyrazolo[4,3-c]pyridin-3-yl)benzenesulfonamide] | – | – | Inhibitory rate (%) Tyk2 1 μM [1]: 98%; Inhibitory rate (%) JAK1 1 μM ([2]; test compound 1 μM): 99%
CC1(C)OCC(Cn2cc(-c3ccc(S(N)(=O)=O)cc3)c3c(=O)[nH]ccc32)O1 (stereo not drawn) [Example 90, 4-(1-((2,2-dimethyl-1,3-dioxolan-4-yl)methyl)-4-oxo-4,5-dihydro-1H-pyrrolo[3,2-c]pyridin-3-yl)benzenesulfonamide] | – | – | inhibition at 10 µM [1]: 22%; inhibition at 10 µM ([2]; test compound 10 μM): 38%
CNC(=O)c1cc(-c2nn(-c3c(F)cccc3F)c3c(Cl)c[nH]c(=O)c23)cs1 [Example 162, 4-(7-chloro-1-(2,6-difluorophenyl)-4-oxo-4,5-dihydro-1H-pyrazolo[4,3-c]pyridin-3-yl)-N-methylthiophene-2-carboxamide] | 99% | 99% | –
NC(=O)c1cc(-c2nn([C@H]3CC[C@@H](N)CC3)c3cc[nH]c(=O)c23)cs1 [Example 298, 4-(1-(cis-4-aminocyclohexyl)-4-oxo-4,5-dihydro-1H-pyrazolo[4,3-c]pyridin-3-yl)thiophene-2-carboxamide] | – | – | inhibition at 10 µM [1]: 58%; inhibition at 10 µM ([2]; test compound 10 μM): 81%
NC(=O)c1cc(-c2nn(C3CCC(O)CC3)c3cc[nH]c(=O)c23)cs1 (stereo not drawn) [Example 171, 4-(1-(4-hydroxycyclohexyl)-4-oxo-4,5-dihydro-1H-pyrazolo[4,3-c]pyridin-3-yl)thiophene-2-carboxamide] | 100% | 100% | –
NS(=O)(=O)c1ccc(-c2nn(C3CCOCC3)c3cc[nH]c(=O)c23)cc1 [Example 15, 4-(4-oxo-1-(tetrahydro-2H-pyran-4-yl)-4,5-dihydro-1H-pyrazolo[4,3-c]pyridin-3-yl)benzenesulfonamide] | 97% | 99% | –
N#CCc1ccc(-c2nn(-c3c(F)cccc3F)c3c(Br)c[nH]c(=O)c23)cc1 [Example 104, (4-(7-bromo-1-(2,6-difluorophenyl)-4-oxo-4,5-dihydro-1H-pyrazolo[4,3-c]pyridin-3-yl)phenyl)acetonitrile] | 99% | 94% | –
NC(=O)Cc1ccc(-c2nn(C3CCCC3)c3cc[nH]c(=O)c23)cc1 [Example 182, 2-(4-(1-cyclopentyl-4-oxo-4,5-dihydro-1H-pyrazolo[4,3-c]pyridin-3-yl)phenyl)acetamide] | 98% | – | inhibition at 10 µM [2, 3]: 98%
CNC(=O)COc1ccc(-c2nn(-c3c(F)cccc3F)c3c(Cl)c[nH]c(=O)c23)cc1 [Example 221, 2-(4-(7-chloro-1-(2,6-difluorophenyl)-4-oxo-4,5-dihydro-1H-pyrazolo[4,3-c]pyridin-3-yl)phenoxy)-N-methylacetamide] | 99% | 80% | –
Cc1ccc(-c2nn(C3CCCC3)c3cc[nH]c(=O)c23)cc1 [Example 50, 1-cyclopentyl-3-(4-methylphenyl)-1,5-dihydro-4H-pyrazolo[4,3-c]pyridin-4-one] | 92% | 92% | –
COC(=O)c1cc(-n2nc(-c3ccccc3C)c3c(C#N)c[nH]c(=O)c32)cs1 [Example 68, methyl 4-(4-cyano-3-(2-methylphenyl)-7-oxo-6,7-dihydro-1H-pyrazolo[3,4-c]pyridin-1-yl)thiophene-2-carboxylate] | 67% | 4% | –
COc1ccc(Cn2nc(-c3ccc(S(N)(=O)=O)cc3)c3c(=O)[nH]ccc32)cc1 [Example 94, 4-(1-(4-methoxybenzyl)-4-oxo-4,5-dihydro-1H-pyrazolo[4,3-c]pyridin-3-yl)benzenesulfonamide] | 78% | 80% | –
N#Cc1c[nH]c(=O)c2c(-c3cn[nH]c3)cn(C3CCCC3)c12 [Example 111, 1-cyclopentyl-4-oxo-3-(1H-pyrazol-4-yl)-4,5-dihydro-1H-pyrrolo[3,2-c]pyridine-7-carbonitrile] | 99% | 96% | –
O=c1[nH]ccc2c1c(-c1ccc(C3=CCOCC3)cc1)nn2-c1c(F)cccc1F [Example 256, 1-(2,6-difluorophenyl)-3-(4-(3,6-dihydro-2H-pyran-4-yl)phenyl)-1,5-dihydro-4H-pyrazolo[4,3-c]pyridin-4-one] | 98% | 92% | –
N#Cc1c[nH]c(=O)c2c(-c3cccnc3)cn(C3CCCC3)c12 [Example 133, 1-cyclopentyl-4-oxo-3-(pyridin-3-yl)-4,5-dihydro-1H-pyrrolo[3,2-c]pyridine-7-carbonitrile] | 90% | 47% | –
NC(=O)c1cc(-c2nn(C3CCCC3)c3cc[nH]c(=O)c23)cs1 [Example 13, 4-(1-cyclopentyl-4-oxo-4,5-dihydro-1H-pyrazolo[4,3-c]pyridin-3-yl)thiophene-2-carboxamide] | 99% | 99% | –
O=c1[nH]cc(Cl)c2c1c(-c1ccc(CN3CCOCC3)cc1)nn2-c1c(F)cccc1F [Example 185, 7-chloro-1-(2,6-difluorophenyl)-3-(4-(morpholin-4-ylmethyl)phenyl)-1,5-dihydro-4H-pyrazolo[4,3-c]pyridin-4-one] | 99% | – | inhibition at 10 µM [2, 3]: 72%
N#Cc1c[nH]c(=O)c2c(-c3ccsc3)cn(C3CCCC3)c12 [Example 106, 1-cyclopentyl-4-oxo-3-(3-thienyl)-4,5-dihydro-1H-pyrrolo[3,2-c]pyridine-7-carbonitrile] | 98% | 91% | –
